In patent US12392782B2, “Characterization of protein binding to per- and polyfluoroalkyl substances” (North Carolina State University, priority 2021, dated 2025):
Like-named read-outs stand apart in the source and are kept apart here.

Experiments:
[1] = target: HSA (Homo sapiens, UniProt P02768); assay: Differential scanning fluorimetry (DSF) thermal shift assay of HSA binding; conditions: for bound by HSA: result in words
Procedure: (§1) Assays were also performed in 384-well plates, in which the reactions were performed using half the final volume (10 μL) and the concentration of each reagent was halved compared to those used in the 96-well plates.
(§2) Data are reported as mean values±SEM following background subtraction.
(§3) [formula] Top is the maximal response, bottom is minimal response, P is protein concentration, Kd is dissociation constant, X is ligand concentration, and Y is change in Tm. […] Comparison between protein concentrations and comparisons of calculated binding affinities between different compounds was performed using one-way analysis of variance (ANOVA) and a Tukey's post hoc test was performed to evaluate pair-wise differences. Significance between differences in values was defined as p<0.05.
(§4) Possible solvent effects were investigated for PFOA that was solubilized in each of the three solvents.

[2] = target: bovine serum albumin (BSA) (Bos taurus, UniProt P02769); assay: DSF thermal shift assay of bovine serum albumin binding
Procedure: as §1, §2, §3
(§5) Binding affinities for certain PFAS compounds were also determined using PSA, BSA, and RSA.

[3] = Description: as §4
[4] = decarboxylation (Liberatore et al.); cited from earlier work
[5] = target: rat serum albumin (RSA) (Rattus norvegicus, UniProt P02770); assay: DSF thermal shift assay of rat serum albumin binding
Procedure: as §1, §2, §3, §5

[6] = target: Porcine serum albumin (PSA) (Sus scrofa, UniProt P08835); assay: DSF thermal shift assay of porcine serum albumin binding
Procedure: as §1, §2, §3, §5

[7] = PFAS, 4-parameter fit of Δ Tm, mean ± SEM
[8] = PFAS, single site ligand binding model, mean ± SEM
[9] = stock solvent DMSO (50% in HBS), mean ± SEM

Sequence of rat serum albumin (RSA) (P02770 25-608): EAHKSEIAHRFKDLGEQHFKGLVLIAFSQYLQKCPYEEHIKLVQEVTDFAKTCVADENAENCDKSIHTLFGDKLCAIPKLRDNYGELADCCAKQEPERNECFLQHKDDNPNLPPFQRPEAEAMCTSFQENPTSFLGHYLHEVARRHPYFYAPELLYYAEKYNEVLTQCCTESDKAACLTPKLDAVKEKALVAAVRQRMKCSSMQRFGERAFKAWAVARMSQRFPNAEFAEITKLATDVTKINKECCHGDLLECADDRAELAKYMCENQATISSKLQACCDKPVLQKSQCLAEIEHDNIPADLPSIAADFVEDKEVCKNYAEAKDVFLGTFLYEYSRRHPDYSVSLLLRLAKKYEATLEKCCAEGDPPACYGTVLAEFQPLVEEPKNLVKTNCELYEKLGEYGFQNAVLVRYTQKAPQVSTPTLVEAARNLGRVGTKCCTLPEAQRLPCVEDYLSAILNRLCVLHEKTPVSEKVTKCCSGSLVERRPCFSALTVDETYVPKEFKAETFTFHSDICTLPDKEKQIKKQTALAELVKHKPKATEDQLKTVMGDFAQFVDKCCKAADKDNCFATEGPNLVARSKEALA
Sequence of bovine serum albumin (BSA) (P02769 25-607): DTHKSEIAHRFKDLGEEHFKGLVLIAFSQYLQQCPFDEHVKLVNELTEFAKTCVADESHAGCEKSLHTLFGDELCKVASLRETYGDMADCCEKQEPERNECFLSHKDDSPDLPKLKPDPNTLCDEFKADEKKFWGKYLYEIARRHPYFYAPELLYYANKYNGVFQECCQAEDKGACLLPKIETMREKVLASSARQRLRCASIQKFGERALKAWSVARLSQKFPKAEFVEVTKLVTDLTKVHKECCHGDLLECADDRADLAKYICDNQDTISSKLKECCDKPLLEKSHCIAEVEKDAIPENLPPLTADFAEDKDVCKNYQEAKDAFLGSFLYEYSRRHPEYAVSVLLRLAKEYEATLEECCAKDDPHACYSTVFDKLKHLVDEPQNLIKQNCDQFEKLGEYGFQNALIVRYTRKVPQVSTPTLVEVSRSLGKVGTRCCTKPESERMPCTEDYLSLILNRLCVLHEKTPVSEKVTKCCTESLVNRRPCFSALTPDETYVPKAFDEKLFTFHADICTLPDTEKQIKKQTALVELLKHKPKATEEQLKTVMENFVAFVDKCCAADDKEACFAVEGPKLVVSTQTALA
Sequence of Porcine serum albumin (PSA) (P08835 25-607): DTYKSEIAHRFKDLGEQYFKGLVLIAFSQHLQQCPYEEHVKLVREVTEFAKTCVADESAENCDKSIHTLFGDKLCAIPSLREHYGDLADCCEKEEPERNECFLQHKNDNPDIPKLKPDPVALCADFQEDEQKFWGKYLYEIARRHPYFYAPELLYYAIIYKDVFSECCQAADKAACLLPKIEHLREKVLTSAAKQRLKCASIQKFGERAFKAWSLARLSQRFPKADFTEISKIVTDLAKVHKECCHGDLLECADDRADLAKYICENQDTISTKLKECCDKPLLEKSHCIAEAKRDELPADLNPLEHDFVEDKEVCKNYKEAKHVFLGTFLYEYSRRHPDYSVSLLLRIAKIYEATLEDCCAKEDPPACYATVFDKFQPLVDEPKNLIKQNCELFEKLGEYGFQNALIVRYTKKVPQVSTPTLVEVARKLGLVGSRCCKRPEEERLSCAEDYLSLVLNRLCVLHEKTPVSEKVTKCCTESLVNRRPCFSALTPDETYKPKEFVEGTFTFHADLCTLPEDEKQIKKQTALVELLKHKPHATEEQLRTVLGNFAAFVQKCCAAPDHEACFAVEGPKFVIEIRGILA
Sequence of HSA (P02768 25-609): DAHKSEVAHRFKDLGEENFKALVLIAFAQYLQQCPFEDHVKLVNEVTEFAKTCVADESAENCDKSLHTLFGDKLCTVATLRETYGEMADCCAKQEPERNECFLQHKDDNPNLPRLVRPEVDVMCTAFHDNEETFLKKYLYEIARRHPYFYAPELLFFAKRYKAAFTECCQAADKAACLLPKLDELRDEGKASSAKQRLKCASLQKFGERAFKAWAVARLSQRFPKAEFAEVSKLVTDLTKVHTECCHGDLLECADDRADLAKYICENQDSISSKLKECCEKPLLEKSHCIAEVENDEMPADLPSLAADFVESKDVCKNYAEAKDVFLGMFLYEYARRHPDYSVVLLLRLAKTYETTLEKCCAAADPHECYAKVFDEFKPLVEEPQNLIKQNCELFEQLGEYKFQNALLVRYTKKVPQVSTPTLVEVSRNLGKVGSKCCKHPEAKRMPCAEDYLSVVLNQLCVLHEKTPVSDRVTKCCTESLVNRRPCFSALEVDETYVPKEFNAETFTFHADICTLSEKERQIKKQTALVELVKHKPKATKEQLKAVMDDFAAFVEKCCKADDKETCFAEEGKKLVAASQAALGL

SMILES: O=C(O)CCC(F)(F)C(F)(F)C(F)(F)F [3:3 FTCA, 2H,2H,3H,3H-Perfluorohexanoic acid]
- EC50 [1]: 2060 ± 210 µM
- Kd [1]: 1710 ± 190 µM

SMILES: OCCC(F)(F)C(F)(F)C(F)(F)C(F)(F)F [4:2 FTOH, 1H,1H,2H,2H-Perfluorohexane-1-ol]
- Δ Tm ([1]; PFAS, 0.125 mM HSA, ± SEM): 0 ± 0 °C
- bound by HSA [1]: not bound by HSA

SMILES: O=S(=O)(O)CCC(F)(F)C(F)(F)C(F)(F)C(F)(F)F [4:2 FTSA, 2H,2H,3H,3H-Perfluorohexansulfonic acid]
- Δ Tm ([1]; PFAS, 0.125 mM HSA, ± SEM): 3.49 ± 0.084 °C
- EC50 [1, 7]: 1450 ± 140 µM
- Kd [1, 8]: 1070 ± 190 µM

SMILES: O=C(O)CCC(F)(F)C(F)(F)C(F)(F)C(F)(F)C(F)(F)F [5:3 FTCA, 2H,2H,3H,3H-Perfluorooctanoic acid]
- EC50 [1]: 1480 ± 100 µM
- Kd [1]: 620 ± 42 µM

SMILES: OCCC(F)(F)C(F)(F)C(F)(F)C(F)(F)C(F)(F)C(F)(F)F [6:2 FTOH, 1H,1H,2H,2H-Perfluorooctanol]
- Δ Tm ([1]; PFAS, 0.125 mM HSA, ± SEM): 0 ± 0 °C
- bound by HSA [1]: not bound by HSA

SMILES: O=S(=O)(O)CCC(F)(F)C(F)(F)C(F)(F)C(F)(F)C(F)(F)C(F)(F)F [6:2 FTSA, 2H,2H,3H,3H-Perfluorooctane-1-sulfonate]
- Δ Tm ([1]; PFAS, 0.125 mM HSA, ± SEM): 3.60 ± 0.33 °C
- EC50 [1, 7]: 470 ± 120 µM
- Kd [1, 8]: 370 ± 140 µM
- Kd ([1]; read-out: Human Kd ± SEM, human albumin): 370 ± 140 µM
- Kd ([2]; read-out: Bovine Kd ± SEM, bovine albumin): 930 ± 50 µM

SMILES: O=C(O)CCC(F)(F)C(F)(F)C(F)(F)C(F)(F)C(F)(F)C(F)(F)F [6:3 FTCA, 2,H,2H,3H,3H-Perfluorononanoic acid]
- EC50 [1]: 840 ± 86 µM
- Kd [1]: 810 ± 92 µM

SMILES: O=C(O)CCC(F)(F)C(F)(F)C(F)(F)C(F)(F)C(F)(F)C(F)(F)C(F)(F)C(F)(F)F [8:3 FTCA, 2,H,2H,3H,3H-Perfluoroundecanoate]
- EC50 [1]: 1160 ± 170 µM
- Kd [1]: 970 ± 68 µM
- aqueous solubility [3]: limited aqueous solubility

SMILES: FC(OC(F)(F)C(F)(F)C(F)(F)F)C(F)(F)F (stereo not drawn) [E1, 1,1,1,2,2,3,3-Heptafluoro-3-(1,2,2,2-tetrafluoroethoxy)propane]
- Δ Tm ([1]; PFAS, 0.125 mM HSA, ± SEM): 7.32 ± 0.042 °C
- EC50 [1, 7]: 2340 ± 230 µM
- Kd [1, 8]: 1640 ± 140 µM

SMILES: O=C(O)C(F)(OC(F)(F)C(F)(F)C(F)(F)F)C(F)(F)F (stereo not drawn) [HFPO-DA, hexafluoropropylene oxide dimer acid]
- EC50 ([1]; HFPO-DA in DMSO (1:1 HBS and DMSO, room temperature 4 hours before analysis)): 2340 ± 230 µM
- Δ Tm ([1]; PFAS, 0.125 mM HSA, ± SEM): 13.7 ± 0.12 °C
- EC50 [1, 7]: 1830 ± 250 µM
- Kd [1, 8]: 1600 ± 160 µM
- stability in DMSO [4]: rapidly converted to E1

SMILES: CCCCCCCCCCCCCCCC(=O)O [Hexadecanoic Acid, hexadecanoic acid, reference compound]
- EC50 [1]: 84 ± 21 µM
- Kd [1]: 30 ± 8 µM

SMILES: O=S(=O)(O)C(F)(F)C(F)(F)OC(F)(C(F)(F)F)C(F)(F)OC(F)C(F)(F)F (stereo not drawn) [Nafion bp2, 7H-perfluoro-4-methyl-3,6-dioxaoctanesulfonic acid]
- EC50 [1]: 1900 ± 240 µM
- Kd [1]: 1510 ± 150 µM

SMILES: O=C(O)C(F)(F)C(F)(F)C(F)(F)F [PFBA, Perfluorobutanoic acid]
- EC50 [1]: 2610 ± 190 µM
- Kd [1]: 2570 ± 320 µM
- Kd [2]: 980 ± 100 µM
- Kd [5]: 1390 ± 110 µM
- Kd [6]: 1500 ± 110 µM

SMILES: O=S(=O)(O)C(F)(F)C(F)(F)C(F)(F)C(F)(F)F [PFBS, Perfluorobutanesulfonic acid]
- EC50 [1]: 1720 ± 230 µM
- Kd [1]: 1650 ± 280 µM
- Kd [2]: 1130 ± 80 µM
- Kd [5]: 930 ± 80 µM
- Kd [6]: 1550 ± 40 µM

SMILES: O=C(O)C(F)(F)C(F)(F)C(F)(F)C(F)(F)C(F)(F)C(F)(F)C(F)(F)C(F)(F)C(F)(F)F [PFDA, perfluorodecanoic acid]
- EC50 [1]: 1110 ± 70 µM
- Kd [1]: 1190 ± 240 µM

SMILES: O=C(O)C(F)(F)C(F)(F)C(F)(F)C(F)(F)C(F)(F)C(F)(F)C(F)(F)C(F)(F)C(F)(F)C(F)(F)C(F)(F)F [PFDoA, perfluorododecanoic acid]
- Δ Tm ([1]; PFAS, 0.125 mM HSA, ± SEM): 7.74 ± 0.14 °C
- EC50 [1, 7]: 2510 ± 140 µM
- Kd [1, 8]: 1890 ± 260 µM

SMILES: O=C(O)C(F)(F)C(F)(F)C(F)(F)C(F)(F)C(F)(F)C(F)(F)F [PFHpA, perfluoroheptanoic acid]
- Δ Tm ([1]; PFAS, 0.125 mM HSA, ± SEM): 15.3 ± 0.29 °C
- EC50 [1, 7]: 680 ± 60 µM
- Kd [1, 8]: 440 ± 80 µM

SMILES: O=C(O)C(F)(F)C(F)(F)C(F)(F)C(F)(F)C(F)(F)F [PFHxA, Perfluorohexanoic acid]
- EC50 [1]: 1400 ± 110 µM
- Kd [1]: 1640 ± 190 µM
- Kd [2]: 950 ± 110 µM
- Kd [5]: 960 ± 70 µM
- Kd [6]: 1420 ± 30 µM

SMILES: O=S(=O)(O)C(F)(F)C(F)(F)C(F)(F)C(F)(F)C(F)(F)C(F)(F)F [PFHxS, perfluorohexanesulfonic acid]
- Δ Tm ([1]; PFAS, 0.125 mM HSA, ± SEM): 11.0 ± 0.17 °C
- EC50 [1, 7]: 980 ± 28 µM
- Kd [1, 8]: 710 ± 190 µM

SMILES: O=C(O)C(F)(F)C(F)(F)C(F)(F)C(F)(F)C(F)(F)C(F)(F)C(F)(F)C(F)(F)F [PFNA, perfluorononanoic acid]
- EC50 [1]: 600 ± 92 µM
- Kd [1]: 580 ± 87 µM

SMILES: O=C(O)C(F)(F)OC(F)(F)C(F)(F)OC(F)(F)C(F)(F)OC(F)(F)F [PFO3DoDA, Perfluoro-3,6,9-trioxadecanoic acid]
- Δ Tm ([1]; PFAS, 0.125 mM HSA, ± SEM): 20.6 ± 0.58 °C
- EC50 [1, 7]: 1670 ± 190 µM
- Kd [1, 8]: 1530 ± 140 µM

SMILES: O=C(O)C(F)(F)C(F)(F)C(F)(F)C(F)(F)C(F)(F)C(F)(F)C(F)(F)F [PFOA, perfluorooctanoic acid]
- EC50 [1, 7]: 840 ± 43 µM
- Δ Tm ([1]; stock solvent DMSO (50% in HBS)): 13.2 °C
- EC50 [1, 9]: 850 ± 10 µM
- Kd [1, 9]: 840 ± 80 µM
- Kd ([1]; stock solvent HEPES-buffered saline (HBS), mean ± SEM): 830 ± 110 µM
- Δ Tm ([1]; stock solvent Methanol (30% in HBS)): 13.5 °C
- EC50 ([1]; stock solvent Methanol (30% in HBS), mean ± SEM): 780 ± 70 µM
- Kd [2]: 750 ± 50 µM
- Kd [6]: 320 ± 40 µM

SMILES: O=S(=O)(O)C(F)(F)C(F)(F)C(F)(F)C(F)(F)C(F)(F)C(F)(F)C(F)(F)C(F)(F)F [PFOS, perfluorooctanesulfonic acid]
- EC50 [1]: 1130 ± 130 µM

SMILES: O=C(O)C(F)(F)C(F)(F)C(F)(F)C(F)(F)F [PFPeA, perfluoropentanoic acid]
- EC50 [1]: 2140 ± 170 µM
- Kd [1]: 2100 ± 230 µM

SMILES: O=C(O)C(F)(F)C(F)(F)C(F)(F)C(F)(F)C(F)(F)C(F)(F)C(F)(F)C(F)(F)C(F)(F)C(F)(F)F [PFunDA, Perfluoroundecanoic acid]
- EC50 [1]: 1490 ± 24 µM
- Kd [1]: 1360 ± 530 µM
